According to patent publication EP0415456A2, “Xanthine compounds” (priority 1989, dated 1991):

Experiments:
[1] = system: Wistar rats; experiment: diuretic effect; assay type: in vivo; details: 25 mg/kg oral, urine collected for 6 hours; for Increase in K⁺ excretion (%) / Increase in Na⁺excretion (%) / Increase in Urine (%): relative to control; for Na⁺/K⁺: relative value of control (control 1.00)
Method: Wistar rats (male: 150 - 300 g) were starved for 18 hours prior to the administration of the test compounds. […] Urine was collected for 6 hours after the administration. Urine volume was measured and the electrolytes (Na+ and K+) in the urine were determined with a flame photome[…], Hitachi Ltd., Japan). All parameters are expressed as relative values of control.

[2] = molecular target: T1, Adenosine A₁ Receptor (Cavia porcellus, UniProt P47745); experiment: Adenosine A1 receptor binding (3H-CHA binding); parameters: species or system guinea pig; details: for Ratio of Ki Values [A₂/A₁]: A₂ Ki (rat corpus striatum) / A₁ Ki (guinea pig cerebrum); for Ki: calculated from Cheng-Prusoff's equation, ³H-CHA; for Ki / inhibition at 100 µM / inhibition at 10 µM: guinea pig cerebrum; for inhibition at 100 µM: concentration of tested compound 10⁻⁴ M; for inhibition at 100 µM / inhibition at 10 µM: ³H-CHA 1.1 nM; for inhibition at 10 µM: concentration of tested compound 10⁻⁵ M
T1 construct: from tissue; host or cells: guinea pig cerebrum membrane preparation
T1 sequence (P47745 1-326): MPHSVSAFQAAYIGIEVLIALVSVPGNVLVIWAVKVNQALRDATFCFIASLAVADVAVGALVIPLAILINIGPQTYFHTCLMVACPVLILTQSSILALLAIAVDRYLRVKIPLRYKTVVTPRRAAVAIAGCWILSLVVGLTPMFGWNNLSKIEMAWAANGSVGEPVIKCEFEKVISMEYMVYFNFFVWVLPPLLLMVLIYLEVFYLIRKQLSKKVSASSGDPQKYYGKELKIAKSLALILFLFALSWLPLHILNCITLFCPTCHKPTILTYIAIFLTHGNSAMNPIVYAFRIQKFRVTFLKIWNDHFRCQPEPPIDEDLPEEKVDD
Method: Cerebrum of a guinea pig was suspended into ice cooled 50 mM tris hydroxymethyl aminomethane hydrochloride (Tris HCl) buffer (pH = 7.7), by using Polytron homogenizer (manufactured by Kinematica Co.). The suspension was centrifuged (50,000 x g, 10 minutes), and the precipitate was resuspended by adding the same volume of 50 mM Tris HCl buffer. The suspension was centrifuged under the same conditions, and the precipitate obtained was suspended once again by adding 10 volumes of 50 mM Tris HCl. The tissue suspension was incubated at 37°C for 30 minutes in the presence of 0.02 units/mg tissue of adenosine deaminase (manufactured by Sigma Co.). The resulting tissue suspension was recentrifuged (50,000 x g, 10 minutes), and 50 mM Tris HCl was added to the precipitate to adjust the concentration of tissue to 10 mg (wet weight)/mℓ.
The mixture was incubated at 25°C for 90 minutes, and the resulting reaction was stopped by rapid vacuum filtration through a glass fiber filter (GF/C manufactured by Whatman Co.) followed by immediately washing three times with 5 mℓ each of ice cold 50 mM Tris HCl buffer. […] Its radioactivity was then determined by a scintillation counter (manufactured by Packard Instrument Co.).
The inhibition rate of the test compounds against the binding of A₁ […] (³H-CHA binding) was calculated from the following equation: [formula]
• 1. […] The inhibition constant (Ki value) shown in the table was calculated from Cheng-Prusoff's equation.

[3] = molecular target: T2, A₂ receptor (Rattus norvegicus, UniProt P30543); experiment: Adenosine A2 receptor binding (3H-NECA binding); details: for inhibition at 10 µM / inhibition at 100 µM: read-out: A₂ Receptor Inhibition (%); for Ki: ³H-NECA with CPA, rat corpus striatum, read-out: A₂ Receptor Ki
T2 construct: A precipitate was prepared from rat corpus striatum; from tissue; host or cells: rat corpus striatum membrane preparation
T2 sequence (P30543 whole entry): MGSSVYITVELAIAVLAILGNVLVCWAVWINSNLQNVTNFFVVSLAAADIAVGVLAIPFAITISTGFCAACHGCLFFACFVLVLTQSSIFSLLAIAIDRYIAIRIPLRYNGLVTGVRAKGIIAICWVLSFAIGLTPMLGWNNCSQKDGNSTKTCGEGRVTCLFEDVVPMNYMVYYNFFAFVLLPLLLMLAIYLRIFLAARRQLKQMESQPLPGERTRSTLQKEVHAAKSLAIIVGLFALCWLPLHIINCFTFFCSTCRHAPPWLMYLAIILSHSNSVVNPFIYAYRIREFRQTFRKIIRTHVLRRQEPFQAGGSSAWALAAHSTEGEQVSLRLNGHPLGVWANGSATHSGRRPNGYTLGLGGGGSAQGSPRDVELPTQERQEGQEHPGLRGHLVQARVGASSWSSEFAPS
Method: A precipitate was prepared from rat corpus striatum in a similar manner as in 1) above. The precipitate was suspended by adding a 50 mM Tris HCl buffer containing 10 mM magnesium chloride and 0.02 unit/mg (tissue) of adenosine deaminase (manufactured by Sigma Co.) to adjust the concentration of tissue to 5 mg (wet weight)/mℓ.
The mixture was incubated at 25°C within 120 minutes. The resulting mixture was treated in the same manner as in 1) above to determine its radioactivity.
The inhibition rate of the test compound against the binding of A₂ receptor (³H-NECA binding) was calculated from the following equation: [formula]

[4] = system: male dd-strain mice; experiment: acute toxicity test; assay type: in vivo
Method: […]. The Minimum lethal dose (MLD) of the compounds was determined by observing whether or not the mice were alive after 7 days of the administration.

[5] = system: glycerol-induced renal failure model; experiment: renal-protecting effect (glycerol-induced renal failure model); assay type: in vivo; details: male Wistar rats; for suppression of increases of the serum creatinine and of urine-nitrogen: 0.01 - 10 mg/kg i.p., 24 hours after 50% glycerol s.c. (p < 0.05); for pathological examination of removed kidneys: state of kidneys: i.p., left kidney removed 24 hours after 50% glycerol s.c.
Method: A renal failure is a state wherein the renal function is lowered and the homeostasis of a body fluid can be no more maintained. It is known that an acute renal failure characteristic of uriniferous tubule disorder is caused by subcutaneous or intramuscular injection of glycerol to rats [Can. J. Physiol.
Male Wistar rats were kept deprived or water for 18 hours, and served for the test. A test compound was intraperitoneally administered to the rats (dosage: 1 mℓ/kg) and the rats were anesthetized with ether and 50% glycerol was subcutaneously administered (dosage: 0.8mℓ/100g) to the rats, pinching the dorsal skin. Twenty four hours after the administration of glycerol, the rats were anesthetized with ether and 5 mℓ of blood were collected from the abdominal aorta. The collected blood was allowed to stand for 30 minutes or longer and then centrifuged at 3,000 rpm for 10 minutes, and the amounts of the serum creatinine and urine-nitrogen (UN) contained in the serum were determined by auto analyzer (Olympus AU510) or measured by a creatinine test Wako (Jaffé method) and UN Test Wako (diacetylmonooxime direct method). Both are manufactured by Wako Pure Chemicals Co.
On the other hand, the left kidneys of the blood-sampled rats were removed and placed in formalin-filled vial bottles, and used as samples for the pathological examination.

[6] = system: zig-zag strips of the trachea; experiment: effects on passive Schultz-Dale reaction (antigen-induced contraction of sensitized trachea strips); parameters: species or system guinea pigs; details: Cavia porcellus; concentration to produce 50% relaxation of EWA (1µg/mℓ)-contracted trachea strips of passively sensitized guinea pigs; read-out: Passive S-D Reaction IC₅₀
Method: After 24 hours, the guinea pigs were stunned and exsanguinated, and then trachea were removed. The zig-zag strips of the trachea were prepared by the method of Emmerson, et al. [J. Pharm. […] The strips were suspended in Krebs-Henseleit solution at 37°C […] Antigen (EWA) was then introduced in the solution (final concentration; 1μg/ml), and the contraction was measured by […] After the contraction reached stable plateau, the compounds were cumulatively added in order to get concentration-relaxation curves. […]

| SMILES | Increase in K⁺ excretion (%) [1] [%] | Increase in Na⁺excretion (%) [1] [%] | Increase in Urine (%) [1] [%] | Na⁺/K⁺ [1] | Ratio of Ki Values [A₂/A₁] [2] | Ki [2] [nM] | inhibition at 100 µM [2] [%] | inhibition at 10 µM [2] [%] | inhibition at 10 µM [3] [%] | inhibition at 100 µM [3] [%] | Ki [3] [nM] | Minimum lethal dose (MLD) ([4]; mouse, in vivo, 10080 min) | suppression of increases of the serum creatinine and of urine-nitrogen [5] | pathological examination of removed kidneys: state of kidneys [5] | Minimum lethal dose (MLD) ([4]; 300 mg/kg orally administered, male dd-strain mice, observed 7 days after administration) | IC50 [6] [nM] |
| --- | --- | --- | --- | --- | --- | --- | --- | --- | --- | --- | --- | --- | --- | --- | --- | --- |
| CCCn1c(=O)c2[nH]c([C@H]3C[C@@H]4C=C[C@@H]3C4)nc2n(CCC)c1=O (relative stereo) [Compound 1, 8-[(1R*,4S*,5S*)-2-Bicyclo[2.2.1]hepten-5-yl]-1,3-dipropylxanthine] | 36 | 73 | 106 | 1.27 | 92.7 | 5.5 | 99 | 99 | 88 | 97 | 510 | more than 300 mg/kg |  |  |  |  |
| CCCn1c(=O)c2[nH]c([C@H]3C[C@H]4CC[C@@H]3C4)nc2n(CCC)c1=O (relative stereo) [Compound 3, 8-[(1R*,2S*,5S*)-Bicyclo[2,2,1]heptan-2-yl]-1,3-dipropylxanthine] | 29 | 137 | 154 | 1.84 | 75.0 | 4.4 | 100 | 100 | 83 | 90 | 330 | more than 300 mg/kg |  |  |  |  |
| CCCn1c(=O)c2[nH]c([C@@H]3CC[C@H]4CCC[C@H]43)nc2n(CCC)c1=O (relative stereo) [Compound 5, 8-[(1R*,2R*,5R*)-Bicyclo[3.3.0]octan-2-yl]-1,3-dipropylxanthine] | 32 | 109 | 88 | 1.58 | 86.8 | 3.8 | 99 | 99 | 91 | 99 | 330 | more than 300 mg/kg |  |  |  |  |
| CCCn1c(=O)c2c(nc([C@H]3C[C@@H]4C=C[C@@H]3C4)n2C)n(CCC)c1=O (relative stereo) [Compound 17, 8-[(1R*,4S*, 5S*)-2-Bicyclo[2.2.1]hepten-5-yl]-1,3-dipropyl-7-methylxanthine] | 51 | 107 | 155 | 1.37 |  |  |  |  |  |  |  | more than 300 mg/kg | significantly suppressed | significantly improved |  |  |
| CCCn1c(=O)[nH]c(=O)c2[nH]c([C@@H]3CC[C@H]4CCC[C@H]43)nc21 (relative stereo) [Compound 23, 8-[(1R*,2R*,5R*)-Bicyclo[3.3.0]octan-2-yl]-3-propylxanthine] |  |  |  |  |  |  |  |  |  |  |  |  | significantly suppressed | significantly improved | more than 300 mg/kg |  |
| CCCn1c(=O)c2[nH]c(C34CC5CC(CC(C5)C3)C4)nc2n(CCC)c1=O [Compound 13, 8-(Adamantan-1-yl)-1,3-dipropylxanthine] | 37 | 186 | 129 | 2.09 |  | 7.8 | 100 | 100 | 63 | 71 |  | more than 300 mg/kg | significantly suppressed | significantly improved |  |  |
| CCCn1c(=O)c2[nH]c(C34CC5CC(CC3C5)C4)nc2n(CCC)c1=O [Compound 14, 8-(Noradamantan-3-yl)-1,3-dipropylxanthine] | 68 | 244 | 315 | 2.05 |  |  | 101 | 101 | 63 | 77 | 380 | more than 300 mg/kg | significantly suppressed | significantly improved |  |  |
| CCCn1c(=O)[nH]c(=O)c2[nH]c(C34CC5CC(CC3C5)C4)nc21 [Compound 25, 8-(Noradamantan-3-yl)-3-propylxanthine] |  |  |  |  |  |  |  |  |  |  |  |  | significantly suppressed | significantly improved |  | 17300 |
| CCCn1c(=O)[nH]c(=S)c2[nH]c(C34CC5CC(CC3C5)C4)nc21 [Compound 26, 8-(Noradamantan-3-yl)-3-propyl-6-thioxanthine] |  |  |  |  |  |  |  |  |  |  |  |  |  |  |  | 22700 |
| CCCn1c(=O)c2nc(C34CC5CC(CC3C5)C4)[nH]c2n(CCC)c1=S [Compound 31, 8-(Noradamantan-3-yl)-1,3-dipropyl-2-thioxanthine] | 56 | 126 | 115 | 1.44 |  |  |  |  |  |  |  | more than 300 mg/kg | significantly suppressed | significantly improved |  |  |
| CCCn1c(=S)c2[nH]c(C34CC5CC(CC3C5)C4)nc2n(CCC)c1=S [Compound 33, 8-(Noradamantan-3-yl)-1,3-dipropyl-2,6-dithioxanthine] | 40 | 105 | 99 | 1.47 |  |  |  |  |  |  |  | more than 300 mg/kg |  |  |  |  |
